Assay results taken from patent US20250051347A1, “BIFUNCTIONAL CHIMERIC HETEROCYCLIC COMPOUND AND USE THEREOF AS ANDROGEN RECEPTOR DEGRADER” (Hinova Pharmaceuticals, Inc., priority 2021, published 2025).

molecular target: T1, androgen receptor (AR) splicing variant AR-v7 (Homo sapiens, UniProt P10275); experiment: Degradation activity on androgen receptor splicing variant AR-v7 in 22RV1 cells (ELISA); type: cell-based; conditions: AR-v7 degradation in 22RV1 cells, 48 h, class symbols
T1 construct: The degradation activity of compounds on AR-v7 in 22RV1 cells; host or cells: 22RV1 cells
T1 sequence (P10275 1-644 isoform P10275-3): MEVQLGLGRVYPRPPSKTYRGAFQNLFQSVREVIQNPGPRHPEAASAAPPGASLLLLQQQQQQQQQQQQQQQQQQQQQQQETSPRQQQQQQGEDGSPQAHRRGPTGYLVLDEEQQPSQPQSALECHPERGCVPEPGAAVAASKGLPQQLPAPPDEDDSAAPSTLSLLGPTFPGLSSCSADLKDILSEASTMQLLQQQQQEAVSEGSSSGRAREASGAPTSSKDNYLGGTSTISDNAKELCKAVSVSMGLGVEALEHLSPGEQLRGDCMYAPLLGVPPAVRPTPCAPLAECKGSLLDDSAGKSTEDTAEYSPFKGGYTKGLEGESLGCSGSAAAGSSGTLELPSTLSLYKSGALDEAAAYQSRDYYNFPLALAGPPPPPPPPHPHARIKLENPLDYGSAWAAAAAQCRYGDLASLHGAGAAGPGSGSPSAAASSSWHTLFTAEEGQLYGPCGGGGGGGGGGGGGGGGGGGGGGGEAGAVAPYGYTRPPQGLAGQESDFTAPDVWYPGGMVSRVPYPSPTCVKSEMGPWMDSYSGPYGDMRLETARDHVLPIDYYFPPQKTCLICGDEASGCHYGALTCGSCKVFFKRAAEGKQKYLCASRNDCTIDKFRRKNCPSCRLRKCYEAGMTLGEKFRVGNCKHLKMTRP
Method: The degradation activity of the compound of the present invention on the androgen receptor splicing variant AR-V7 was analyzed using enzyme-linked immunosorbent assay (ELISA).
The plate was cultured in a 5% CO2 cell incubator at 37° C. for 2 days until the cells adhered to the wall. • 2) The drug was prepared into 10 mM stock solution with dimethylsulfoxide (DMSO). […] The plate was gently shaken and mixed. In addition, negative control wells (only containing culture medium) and positive control wells (only containing cells and DMSO) were set. • 3) After the cells were cultured in an incubator for 48 h, the medium was removed and the cells were rinsed once with ice cold PBS. Then, ice-cold 1× cell lysis buffer was added to each well of the cell culture plate. After the plate was incubated on ice for 15 min, the plate was tapped to mix. • 4) The supernatant of the cell lysate was transferred from the cell culture plate to a […] plate for ELISA. • 5) The newly prepared Capture antibody (green) was mixed with the newly prepared HRP-labeled antibody (red), and then the antibody mixture was added to the above 96-well ELISA plate. • 6) The ELISA plate was sealed with plastic film, and then incubated in a 25° C. incubator for 1 h. • 7) The washing buffer was added to each well, and then TMB substrate was added to each well of the ELISA plate. Subsequently, the plate was cultured in an incubator at 37° C. for 5 min. • 8) 100 μl of stop solution was added to each well of the ELISA plate, and the plate was gently tapped for several seconds. The absorbance was read at 450 nm within 30 min. The data were analyzed by the Dose-response equation in the software GraphPad Prism8, to obtain DC50 and Dmax values.

DC50, 0.101 to 1 µM:
CC(C)(c1ccc(OCCCNc2ccc3c(c2)C(=O)N(C2CCC(=O)NC2=O)C3=O)cc1)c1ccc(OCc2nc(C(=O)N3CCC3)no2)cc1 (centres unmarked) [Example 139, 5-((3-(4-(2-(4-((3-(azetidin-1-carbonyl)-1,2,4-oxadiazol-5-yl)methoxy)phenyl)propan-2-yl)phenoxy)propyl)amino)-2-(2,6-dioxopiperidin-3-yl)isoindolin-1,3-dione]
CC(C)(c1ccc(OCCCNc2cccc3c2C(=O)N(C2CCC(=O)NC2=O)C3=O)cc1)c1ccc(OCc2ccnc(N3CCCCC3)n2)cc1 (centres unmarked) [Example 555]
CCS(=O)(=O)Nc1nccc(COc2ccc(C(C)(C)c3ccc(OCCCCCCCCOCCCCNc4ccc5c(c4)C(=O)N(C4CCC(=O)NC4=O)C5=O)cc3)cc2)n1 (centres unmarked) [Example 44]
CC(=O)c1nccc(COc2ccc(C(C)(C)c3ccc(O[C@H]4C[C@H](N(C)c5ccc6c(c5)C(=O)N(C5CCC(=O)NC5=O)C6=O)C4)cc3)cc2)n1 (stereo partly drawn) [Example 111, 5-(((trans)-3-(4-(2-(4-((2-acetylpyrimidin-4-yl)methoxy)phenyl)propan-2-yl)phenoxy)cyclobutyl)(methyl)amino)-2-(2,6-dioxopiperidin-3-yl)isoindolin-1,3-dione]

DC50, 1 to 5 µM:
CC(C)(c1ccc(OCCCCCCCCOCCCCNc2ccc3c(c2)C(=O)N(C2CCC(=O)NC2=O)C3=O)cc1)c1ccc(OCc2nc(C(N)=O)no2)cc1 (centres unmarked) [Example 138]
CC(C)[C@H](COc1ccc(C(C)(C)c2ccc(OCc3ccnc(N4CC5(COC5)C4)n3)cc2)cc1)Nc1ccc2c(c1)C(=O)N(C1CCC(=O)NC1=O)C2=O (some centres unmarked) [Example 149]
CC(C)(c1ccc(OCc2ccnc(-c3ncno3)n2)cc1)c1ccc(O[C@H]2C[C@@H](Nc3ccc4c(c3)C(=O)N(C3CCC(=O)NC3=O)C4=O)C2)cc1 (some centres unmarked) [Example 252]
CC(C)(c1ccc(OCc2ccnc(N3CC4(COC4)C3)n2)cc1)c1ccc(OC2CCCC[C@H]2Nc2ccc3c(c2)C(=O)N(C2CCC(=O)NC2=O)C3=O)cc1 (some centres unmarked) [Example 152]

DC50, 0.011 to 0.1 µM:
CC(O)c1ncc(Oc2ccc(C(C)(C)c3ccc(O[C@H]4C[C@@H](Nc5ccc6c(c5)C(=O)N(C5CCC(=O)NC5=O)C6=O)C4)cc3)cc2)cn1 (some centres unmarked) [Example 127]
CC(C)(c1ccc(Oc2nc(N3CC4(COC4)C3)ncc2F)cc1)c1ccc(O[C@H]2C[C@H](Nc3ccc4c(c3)C(=O)N(C3CCC(=O)NC3=O)C4=O)C2)cc1 (some centres unmarked) [Example 247]
Cc1nnc(-c2ncc(Oc3ccc(C(C)(C)c4ccc(O[C@H]5C[C@@H](Nc6ccc7c(c6)C(=O)N(C6CCC(=O)NC6=O)C7=O)C5)cc4)cc3)cn2)o1 (some centres unmarked) [Example 484]
CC(C)(c1ccc(OCc2ccc(F)c(-n3ccnn3)n2)cc1)c1ccc(O[C@H]2C[C@H](Nc3ccc4c(c3)C(=O)N(C3CCC(=O)NC3=O)C4=O)C2)cc1 (some centres unmarked) [Example 286]
CC(C)(c1ccc(OCc2ccnc(N3CCC4(CC3)COC4)n2)cc1)c1ccc(O[C@H]2C[C@@H](Nc3ccc4c(c3)C(=O)N(C3CCC(=O)NC3=O)C4=O)C2)cc1 (some centres unmarked) [Example 87, 5-(((1s,3s)-3-(4-(2-(4-((2-(2-oxa-7-azaspiro[3.5]nonan-7-yl)pyrimidin-4-yl)methoxy)phenyl)propan-2-yl)phenoxy)cyclobutyl)amino)-2-(2,6-dioxopiperidin-3-yl)isoindolin-1,3-dione]
CC(C)(c1ccc(OCc2nc(N3CC4(COC4)C3)ncc2Cl)cc1)c1ccc(O[C@H]2C[C@H](Nc3ccc4c(c3)C(=O)N(C3CCC(=O)NC3=O)C4=O)C2)cc1 (some centres unmarked) [Example 202, 5-((1r,3r)-3-(4-(2-(4-((5-chloro-2-(2-oxa-6-azaspiro[3.3]heptan-6-yl)pyrimidin-4-methoxy)phenyl)propan-2-yl)phenoxy)cyclobutyl)amino)-2-(2,6-dioxopiperidin-3-yl)isoindolin-1,3-dione]
CC(C)(c1ccc(OCCCNc2ccc3c(c2)C(=O)N(C2CCC(=O)NC2=O)C3=O)cc1)c1ccc(OCc2nc(C(N)=O)co2)cc1 (centres unmarked) [Example 388]
CC(C)(c1ccc(Oc2nc(N3CC4(COC4)C3)ncc2F)cc1)c1ccc(O[C@H]2C[C@@H](Nc3ccc4c(c3)C(=O)N(C3CCC(=O)NC3=O)C4=O)C2)cc1 (some centres unmarked) [Example 158]
CC(C)(c1ccc(Oc2cc(-n3nccn3)ccn2)cc1)c1ccc(O[C@H]2C[C@H](Nc3ccc4c(c3)C(=O)N(C3CCC(=O)NC3=O)C4=O)C2)cc1 (some centres unmarked) [Example 165, 5-(((1r,3r)-3-(4-(2-((4-(2H-1,2,3-triazol-2-yl)pyridin-2-yl)oxy)phenyl)propan-2-ylphenoxy)cyclobutyl)amino)-2-(2,6-dioxopyridin-3-yl)isoindol-1,3-dione]
CC(C)(c1ccc(OCc2ccnc(N3CCC4(CNC4)C3)n2)cc1)c1ccc(O[C@H]2C[C@H](Nc3ccc4c(c3)C(=O)N(C3CCC(=O)NC3=O)C4=O)C2)cc1 (some centres unmarked) [Example 83, 5-(((1r,3r)-3-(4-(2-(4-((2-(2,6-diazaspiro[3.4]octan-6-yl)pyrimidin-4-yl)methoxy)phenyl)propan-2-yl)phenoxy)cyclobutyl)amino)-2-(2,6-dioxopiperidin-3-yl)isoindolin-1,3-dione]
CC(C)(c1ccc(OCCCNc2cccc3c2C(=O)N(C2CCC(=O)NC2=O)C3=O)cc1)c1ccc(OCc2ccnc(N3CCOCC3)n2)cc1 (centres unmarked) [Example 59]
O=C1CCC(N2C(=O)c3ccc(N[C@H]4C[C@H](Oc5ccc(C6(c7ccc(Oc8ccc(-n9nccn9)nn8)cc7)CC6)cc5)C4)cc3C2=O)C(=O)N1 (some centres unmarked) [Example 374, 5-(((1r,3r)-3-(4-(1-(4-((6-(2H-1,2,3-triazole-2-yl)pyridazine-3-yl)oxy)phenyl)cyclopropyl)phenoxy)cyclobutyl)amino)-2-(2,6-dioxopiperidin-3-yl)isoindolin-1,3-dione]
CC(C)(c1ccc(OCc2ccc(F)c(-n3nccn3)n2)cc1)c1ccc(O[C@H]2C[C@H](Nc3ccc4c(c3)C(=O)N(C3CCC(=O)NC3=O)C4=O)C2)cc1 (some centres unmarked) [Example 287]
CC(C)(c1ccc(OCc2cccc(-n3cccn3)n2)cc1)c1ccc(O[C@H]2C[C@H](Nc3ccc4c(c3)C(=O)N(C3CCC(=O)NC3=O)C4=O)C2)cc1 (some centres unmarked) [Example 253]
CC(C)(c1ccc(Oc2ccc(N3CC(N4CC(F)(F)C4)C3)nn2)cc1)c1ccc(O[C@H]2C[C@H](Nc3ccc4c(c3)C(=O)N(C3CCC(=O)NC3=O)C4=O)C2)cc1 (some centres unmarked) [Example 424]

same assay, conditions: AR-v7 degradation in 22RV1 cells, 48 h, numeric values

DC50, 6.86 µM:
CC(C)(c1ccc(OCCCOCCCOCCCNc2cccc3c2C(=O)N(C2CCC(=O)NC2=O)C3=O)cc1)c1ccc(OCc2ccnc(NS(C)(=O)=O)n2)cc1 (centres unmarked) [Example 19, N-(4-((4-(2-(4-(3-(3-(3-((2-(2,6-dioxopiperidin-3-yl)-1,3-dioxoisoindolin-4-yl)amino)propoxy)propoxy)propoxy)phenyl)propan-2-yl)phenoxy)methyl)pyrimidin-2-yl)methanesulfonamide]

DC50, > 10 µM:
CC(O)c1nccc(COc2ccc(C(C)(C)c3ccc(OCCCCCCCCOCCN4CCN(c5ccc6c(c5)C(=O)N(C5CCC(=O)NC5=O)C6=O)CC4)cc3)cc2)n1 (centres unmarked) [Example 300]

DC50, > 5 µM:
CC(C)(c1ccc(OCc2ccnc(NS(C)(=O)=O)n2)cc1)c1ccc(OC2CN(c3ccc4c(c3)C(=O)N(C3CCC(=O)NC3=O)C4=O)C2)cc1 (centres unmarked) [Example 46, N-(4-((4-(2-(4-((1-(2-(2,6-dioxopiperidin-3-yl)-1,3-dioxoisoindolin-5-yl)azetidin-3-yl)oxy)phenyl)propan-2-yl)phenoxy)methyl)pyrimidin-2-yl)methanesulfonamide]
